Source: patent US11369618B2, “Compounds, compositions and methods for prevention and/or treatment of cancer” (THE TRUSTEES OF THE UNIVERSITY OF PENNSYLVANIA, priority 2016, dated 2022)
“Also recorded” adds a separate entry of the source.

How the values were obtained:
[1] = test system: histone posttranslational modifications; assay: mass spectrometry of histone posttranslational modifications in estrogen-treated melanocytes; type: cell-based, human
From the text: FIG. 16B: Western blot of p-RB, c-Myc, and H3K56ac in melanoma cells after treatment with G-1, HDACi, or in combination. FIG. 16C: Proliferation assay of B16F10 melanoma cells after treatment with G-1, HDACi, or in combination.
To begin to identify the epigenetic changes likely underlying stable melanocyte differentiation after GPER activation, mass spectrometry was used to obtain a global analysis of histone posttranslational modifications in estrogen-treated MC.

[2] = test system: Mouse (B16) and human (WM46) melanoma cell lines; assay: tumor formation in mice from melanoma cells pretreated in vitro; type: in vivo
Method: (§1) FIG. 11A: Long-term melanin assay in which normal human melanocytes were transiently treated with progesterone (P4), or estrogen (E2). Subsets of these groups (Red) were treated with an additional transient pulse of P4 at Day 27. Error bars equal the standard deviation of the samples. FIG. 11B: Western blot of melanocyte differentiation markers after a transient, 4-day treatment with either vehicle or estrogen, followed by an 8 day withdraw period. FIG. 11C: Experimental timeline of estrogen or GPER agonist (G-1) pre-treatment of mouse and human melanoma cells, n=5 per group. FIG. 11D: Relative tumor weights of mouse and human melanomas pre-treated with estrogen, * denotes significance by the Mann-Whitney test. FIG. 11E: Relative tumor weights of mouse and human melanomas pre-treated with G-1, * denotes significance by the Mann-Whitney test.
Mouse (B16) and human (WM46) cell lines were pretreated with estrogen, G-1, or vehicle in vitro for one week then injected in equal numbers in to the left (vehicle-treated) or right (E2-treated) flank of mice, inducing tumor formation (N=5 mice per group) (FIG. 5). 14-16 days later, mice were imaged and tumors were harvested and weighed.
To test whether transient GPER signaling induces a persistent differentiation state in melanoma cells that affects subsequent tumor growth in vivo, melanoma cells were treated with estrogen, G-1, or vehicle in vitro, and subsequently injected equal numbers of treated cells into host mice (FIG. 11C).

[3] = test system: mouse and human melanoma cell lines (B16F10, WM46, WM51, WM3702); assay: melanin assay (differentiation) of mouse and human melanoma cell lines in vitro; type: cell-based; details: estrogen 25 nM E2, G-1 100 nM, vs delivery vehicle
From the text: (§2) FIGS. 4A-4F illustrate the finding that GPER signaling slows proliferation and drives differentiation in mouse and human melanoma. FIG. 4A: 5 day proliferation assay of B16F10, WM46 (BRAF^V600E), WM51 (BRAF^V600E), and WM3702 (NRAS^Q61L) cells treated with estrogen (E2), * denotes significance by a two-tailed T-test, n=3 per group. FIG. 4B: 5 day melanin assay of B16F10, WM46 (BRAF^V600E), WM51 (BRAF^V600E), and WM3702 (NRAS^Q61L) cells treated with E2, * denotes significance by a two-tailed T-test, n=3 per group. FIG. 4C: 5 day proliferation assay of B16F10, WM46 (BRAF^V600E), WM51 (BRAF^V600E) and WM3702 (NRAS^Q61L) cells treated with GPER agonist (G-1), * denotes significance by a two-tailed T-test, n=3 per group. FIG. 4D: 5 day melanin assay of B16F10, WM46 (BRAF^V600E), WM51 (BRAF^V600E), and WM3702 (NRAS^Q61L) cells treated with G-1, * denotes significance by a two-tailed T-test, n=3 per group. FIG. 4E: 3 day proliferation assay of B16F10 cells treated with a dose response of G-1, * denotes significance One-way ANOVA with Tukey's multiple comparison test, n=5 per group. FIG. 4F: Western blot of B16F10 cells treated for 16 hours with a saturating dose response of G-1. […]
(§3) Tumor cell proliferation slowed in both mouse and human melanoma cells following treatment with estrogen or G-1, a specific GPER agonist. […] Cell proliferation and differentiation (melanin production) were measured.

normal human melanocytes = assay: differentiation of normal human melanocytes after continuous or transient hormone exposure (melanin, RNAseq, Western blot); type: cell-based; details: for melanocyte differentiation state (melanin pigment production) / melanin production after hormone withdrawal: normal human melanocytes; for melanocyte differentiation state (melanin pigment production): hormone or agonist exposure; for melanin production after hormone withdrawal: transient exposure then withdrawal
Method: as §1
Normal human melanocytes received a pulse-treatment of estrogen—this consisted of 4 days of estrogen treatment followed by an 8 day withdraw.
To test whether pregnancy-associated hormones induce long-lasting changes in melanocyte differentiation that may affect their future susceptibility to transformation, primary human melanocytes were transiently exposed to estrogen or progesterone (FIGS. 11A-11E).
A subset of cells differentiated by transient exposure to estrogen was subsequently treated with progesterone.

[4] = test system: mouse and human melanoma cell lines (B16F10, WM46, WM51, WM3702); assay: proliferation assay of mouse and human melanoma cell lines in vitro; type: cell-based; details: estrogen 25 nM E2, G-1 100 nM, vs delivery vehicle
From the text: as §2, §3

human melanocytes = assay: pigment production and differentiation in human melanocytes treated with MSH or afamelanotide (FIG. 9); type: cell-based
From the text: FIG. 9 is a set of bar graphs illustrating the finding that MSH (the endogenous equivalent of afamelanotide) and afamelanotide (also known as […] or NDP-α-MSH) increase pigment production (top) and differentiation (bottom) in human melanocytes.

Molecule: C[C@]12CC[C@@H]3c4ccc(O)cc4CC[C@H]3[C@@H]1CC[C@@H]2O [estrogen, estradiol]
- H3K9ac mark [1]: decreased
- histone acetylation marks regulated by CBP/P300, including H3K122, H3K23, and H3K18 ([1]; 3 independent biologic replicates): significant increases
- inhibition of tumor growth in vivo ([2]; cells pretreated in vitro for one week, injected into flank of mice, tumors weighed 14-16 days later): approximately 3 fold
- tumor growth / tumor size from pretreated cells ([2]; melanoma cells pretreated in vitro, equal numbers injected into mice): formed significantly smaller tumors; also recorded: markedly reduced subsequent tumor size; also recorded: inhibits melanoma cell line growth in vivo
- differentiation (melanin production) [3]: drove differentiation
- expression of aggressive melanoma markers such as premelanosome protein (PMEL) (normal human melanocytes; 4 days of treatment followed by an 8 day withdraw, RNAseq): decreased expression
- expression of melanocyte differentiation markers (TYR, TRP1, MC1R, MLANA, DCT) (normal human melanocytes; 4 days of treatment followed by an 8 day withdraw, RNAseq, Western blot): maintained upregulated expression of all the major melanocyte differentiation markers; also recorded: stable increases in classic melanocyte differentiation antigens
- melanocyte differentiation state (melanin pigment production) (normal human melanocytes): increases melanocyte differentiation state; also recorded: increase the differentiation state of human melanocytes
- melanocyte differentiation state (melanin pigment production) (normal human melanocytes; listed as Estrogen): make more pigment; also recorded: increased melanin production
- melanin production after hormone withdrawal (normal human melanocytes): stably produced more melanin
- melanoma cell proliferation [4]: slowed melanoma cell proliferation

Molecule: CC(=O)[C@H]1CC[C@H]2[C@@H]3CCC4=CC(=O)CC[C@]4(C)[C@H]3CC[C@]12C [progesterone]
- melanocyte differentiation state (melanin pigment production) (normal human melanocytes): had opposite effects
- melanin production after hormone withdrawal (normal human melanocytes): quickly returned to their baseline level of melanin production

Molecule: MSH: the endogenous equivalent of afamelanotide (Ac-SYSMEHFRWGKPV-NH2; ends and bridges not checked; UniProt P01189 138-150, looked up)
- differentiation (human melanocytes): increase
- pigment production (human melanocytes): increase
